Data published in ChEMBL document CHEMBL4842352, “Novel diarylamides and diarylureas with N-substitution dependent activity against medulloblastoma” (Eur J Med Chem, 2021).
Active and inactive are the calls of the source. The calls are words filed in the database; no cut-off is given here.

Tests used:
[1] = tested on: ONS-76; experiment: Cytotoxicity against human ONS-76 cells assessed as reduction in cell viability incubated for 72 hrs by MTT assay; type: functional, cell-based; settings: ONS-76, 72 h
[2] = tested on: Daoy; experiment: Cytotoxicity against human DAOY cells assessed as reduction in cell viability incubated for 72 hrs by MTT assay; type: functional, cell-based
[3] = molecular target: T1, Aurora kinase A (Homo sapiens) (UniProt O14965); experiment: Inhibition of Aurora A (unknown origin) at 100 uM relative to control
T1 sequence (whole entry): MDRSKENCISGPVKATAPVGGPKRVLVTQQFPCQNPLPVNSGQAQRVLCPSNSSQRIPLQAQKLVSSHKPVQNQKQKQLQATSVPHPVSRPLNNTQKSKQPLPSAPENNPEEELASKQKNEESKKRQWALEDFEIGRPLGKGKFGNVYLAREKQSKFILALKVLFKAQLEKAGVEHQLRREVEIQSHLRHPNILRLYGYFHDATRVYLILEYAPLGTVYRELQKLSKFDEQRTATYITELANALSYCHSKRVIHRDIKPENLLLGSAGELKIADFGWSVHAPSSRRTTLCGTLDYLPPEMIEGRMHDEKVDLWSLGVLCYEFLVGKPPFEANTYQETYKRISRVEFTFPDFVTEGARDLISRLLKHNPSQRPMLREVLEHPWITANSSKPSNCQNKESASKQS

[4] = tested on: ONS-76; experiment: Potency index, ratio of 1-(naphthalen-1-yl)-3-(3,4,5-trimethoxyphenyl)urea IC50 to test compound IC50 for cytotoxicity against human ONS-76 cells assessed as reduction in cell viability incubated for 72 hrs by MTT assay; type: functional
[5] = tested on: Daoy; experiment: Potency index, ratio of 1-(naphthalen-1-yl)-3-(3,4,5-trimethoxyphenyl)urea IC50 to test compound IC50 for cytotoxicity against human DAOY cells assessed as reduction in cell viability incubated for 72 hrs by MTT assay; type: functional
[6] = molecular target: Cyclin-dependent kinase 2 (Homo sapiens) (UniProt P24941); experiment: Inhibition of CDK2 (unknown origin) at 100 uM
[7] = molecular target: Insulin-like growth factor 1 receptor (Homo sapiens) (UniProt P08069); experiment: Inhibition of IGF-1R (unknown origin) at 100 uM
Chain of Insulin-like growth factor 1 receptor (Homo sapiens) (P08069 31-736 limits assumed): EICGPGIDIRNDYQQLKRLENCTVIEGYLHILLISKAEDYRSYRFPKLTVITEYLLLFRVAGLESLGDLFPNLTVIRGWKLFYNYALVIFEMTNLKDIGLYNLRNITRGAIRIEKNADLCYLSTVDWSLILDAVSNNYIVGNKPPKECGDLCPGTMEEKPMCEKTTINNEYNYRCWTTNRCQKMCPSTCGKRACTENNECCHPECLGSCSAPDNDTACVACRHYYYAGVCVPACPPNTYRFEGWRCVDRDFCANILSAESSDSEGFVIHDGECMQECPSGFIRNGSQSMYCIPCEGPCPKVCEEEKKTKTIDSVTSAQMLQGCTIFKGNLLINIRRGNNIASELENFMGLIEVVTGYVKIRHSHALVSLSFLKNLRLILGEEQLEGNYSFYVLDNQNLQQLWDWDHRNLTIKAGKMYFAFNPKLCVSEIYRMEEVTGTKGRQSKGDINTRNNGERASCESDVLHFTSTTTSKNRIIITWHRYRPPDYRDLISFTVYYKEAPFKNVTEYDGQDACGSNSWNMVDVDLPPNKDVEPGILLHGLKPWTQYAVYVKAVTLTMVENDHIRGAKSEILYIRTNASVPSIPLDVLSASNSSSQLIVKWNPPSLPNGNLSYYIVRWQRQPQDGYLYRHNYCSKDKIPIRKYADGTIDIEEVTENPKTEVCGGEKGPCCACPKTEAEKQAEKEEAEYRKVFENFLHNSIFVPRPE
Chain of Insulin-like growth factor 1 receptor (Homo sapiens) (P08069 741-1367 limits assumed): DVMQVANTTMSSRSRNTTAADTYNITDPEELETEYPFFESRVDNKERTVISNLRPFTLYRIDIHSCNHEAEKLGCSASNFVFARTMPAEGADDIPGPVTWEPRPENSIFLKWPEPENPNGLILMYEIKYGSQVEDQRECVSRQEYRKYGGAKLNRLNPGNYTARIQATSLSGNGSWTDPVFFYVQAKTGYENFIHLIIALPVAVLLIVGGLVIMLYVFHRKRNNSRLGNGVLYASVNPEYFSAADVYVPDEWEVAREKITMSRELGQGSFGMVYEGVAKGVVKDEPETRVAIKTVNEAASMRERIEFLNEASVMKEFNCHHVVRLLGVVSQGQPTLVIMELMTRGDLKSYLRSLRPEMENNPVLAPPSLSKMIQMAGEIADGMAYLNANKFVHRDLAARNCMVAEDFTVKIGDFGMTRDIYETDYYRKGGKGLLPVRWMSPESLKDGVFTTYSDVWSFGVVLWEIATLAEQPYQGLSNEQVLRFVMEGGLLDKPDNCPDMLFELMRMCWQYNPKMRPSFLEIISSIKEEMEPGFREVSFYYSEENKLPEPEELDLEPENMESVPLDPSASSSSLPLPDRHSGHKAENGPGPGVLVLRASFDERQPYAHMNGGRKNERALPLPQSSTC

[8] = molecular target: Vascular endothelial growth factor receptor 2 (Homo sapiens) (UniProt P35968); experiment: Inhibition of VEGFR2 (unknown origin) at 100 uM
Chain of Vascular endothelial growth factor receptor 2 (Homo sapiens) (P35968 whole entry): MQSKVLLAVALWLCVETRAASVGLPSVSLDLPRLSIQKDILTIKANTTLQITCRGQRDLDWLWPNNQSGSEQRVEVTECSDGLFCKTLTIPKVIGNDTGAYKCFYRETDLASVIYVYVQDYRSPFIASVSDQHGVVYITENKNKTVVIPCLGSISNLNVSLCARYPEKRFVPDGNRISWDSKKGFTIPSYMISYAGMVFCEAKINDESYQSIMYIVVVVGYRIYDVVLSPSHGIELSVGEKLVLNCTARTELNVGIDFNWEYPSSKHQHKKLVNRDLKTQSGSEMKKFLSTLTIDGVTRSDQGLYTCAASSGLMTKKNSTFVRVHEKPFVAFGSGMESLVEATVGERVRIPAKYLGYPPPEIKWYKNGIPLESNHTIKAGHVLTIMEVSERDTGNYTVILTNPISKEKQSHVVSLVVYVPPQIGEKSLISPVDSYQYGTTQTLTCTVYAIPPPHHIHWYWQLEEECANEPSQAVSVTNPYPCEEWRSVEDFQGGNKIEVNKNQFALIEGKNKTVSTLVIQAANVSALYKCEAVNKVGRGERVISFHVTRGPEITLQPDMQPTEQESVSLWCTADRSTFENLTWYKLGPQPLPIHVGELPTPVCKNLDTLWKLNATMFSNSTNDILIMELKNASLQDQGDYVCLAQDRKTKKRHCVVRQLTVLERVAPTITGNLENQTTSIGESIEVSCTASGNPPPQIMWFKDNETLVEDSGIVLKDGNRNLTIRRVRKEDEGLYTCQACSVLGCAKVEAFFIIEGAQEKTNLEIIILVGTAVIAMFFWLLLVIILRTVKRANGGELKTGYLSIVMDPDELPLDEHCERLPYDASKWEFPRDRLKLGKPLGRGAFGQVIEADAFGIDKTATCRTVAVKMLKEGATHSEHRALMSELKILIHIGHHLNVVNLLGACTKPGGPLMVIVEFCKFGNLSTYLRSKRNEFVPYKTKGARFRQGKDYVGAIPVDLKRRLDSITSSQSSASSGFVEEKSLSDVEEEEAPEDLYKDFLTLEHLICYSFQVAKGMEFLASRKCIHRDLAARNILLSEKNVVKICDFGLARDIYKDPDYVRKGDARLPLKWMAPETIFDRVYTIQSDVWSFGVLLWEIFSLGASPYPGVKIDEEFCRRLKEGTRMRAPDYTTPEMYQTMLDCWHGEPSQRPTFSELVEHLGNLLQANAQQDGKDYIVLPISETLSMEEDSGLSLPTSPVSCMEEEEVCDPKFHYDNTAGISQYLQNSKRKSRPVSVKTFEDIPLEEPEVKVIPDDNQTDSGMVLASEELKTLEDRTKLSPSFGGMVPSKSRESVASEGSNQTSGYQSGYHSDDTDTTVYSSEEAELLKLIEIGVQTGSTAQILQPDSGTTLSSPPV

Row | SMILES | IC50 [1] | IC50 [2] | also measured
1 | COc1cc(N(C)C(=O)c2cccc(F)c2)cc(OC)c1OC | ≥ 125 µM | ≥ 125 µM | 
2 | COc1cc(N(C)C(=O)c2ccc([N+](=O)[O-])cc2)cc(OC)c1OC | ≥ 125 µM | ≥ 125 µM | 
3 | COc1cc(NC(=O)c2cccc(F)c2)cc(OC)c1OC | ≥ 125 µM | ≥ 125 µM | 
4 | COc1cc(NC(=O)Nc2ccc(F)cc2)cc(OC)c1OC | 63.2 µM | 104 µM | 
5 | COc1cc(NC(=O)Nc2cccc(F)c2)cc(OC)c1OC | 65.5 µM | 111 µM | 
6 | COc1cc(NC(=O)Nc2ccc([N+](=O)[O-])cc2)cc(OC)c1OC | 35 µM | 70.8 µM | 
7 | COc1cc(NC(=O)Nc2cccc3cc[nH]c23)cc(OC)c1OC | ≥ 125 µM | ≥ 125 µM | 
8 | COc1cc(NC(=O)Nc2ccc(O)c3ccccc23)cc(OC)c1OC | 2.5 µM | 0.1 µM | inhibition [3]: 30%; Ratio IC50 [4]: 0.98; Ratio IC50 [5]: 58.4; inhibition [6]: inactive; inhibition [7]: inactive; inhibition [8]: inactive
9 | COc1cc(N(C)C(=O)c2cccc3ccccc23)cc(OC)c1OC | 65.7 µM | ≥ 125 µM | 
10 | COc1cc(N(C)C(=O)c2ccc(F)cc2)cc(OC)c1OC | ≥ 125 µM | ≥ 125 µM | 
11 | COc1cc(N(C)C(=O)N(C)c2ccc(F)cc2)cc(OC)c1OC | ≥ 125 µM | ≥ 125 µM | 
12 | COc1ccc(N(C)C(=O)N(C)c2cc(OC)c(OC)c(OC)c2)cc1 | ≥ 125 µM | ≥ 125 µM | 
13 | COc1cc(N(C)C(=O)c2ccccc2)cc(OC)c1OC | ≥ 125 µM | ≥ 125 µM | 
14 | COc1cc(NC(=O)Nc2cccc([N+](=O)[O-])c2)cc(OC)c1OC | 79.6 µM | 82.5 µM | 
15 | COc1ccc(C(=O)N(C)c2cc(OC)c(OC)c(OC)c2)cc1 | ≥ 125 µM | ≥ 125 µM | 
16 | COc1cc(NC(=O)Nc2cccc3cc4ccccc4cc23)cc(OC)c1OC | 10 µM | 1.25 µM | Ratio IC50 [4]: 0.25; Ratio IC50 [5]: 4.7
17 | COc1cc(NC(=O)c2cccc([N+](=O)[O-])c2)cc(OC)c1OC | ≥ 125 µM | ≥ 125 µM | 

Row | SMILES | IC50 [1] | IC50 [2] | also measured
18 | COc1cc(NC(=O)c2ccc(F)cc2)cc(OC)c1OC | ≥ 125 µM | ≥ 125 µM | 
19 | COc1cc(N(C)C(=O)c2cccc([N+](=O)[O-])c2)cc(OC)c1OC | ≥ 125 µM | ≥ 125 µM | 
20 | COc1cc(N(C)C(=O)N(C)c2cccc(F)c2)cc(OC)c1OC | ≥ 125 µM | ≥ 125 µM | 
21 | COc1cc(NC(=O)Nc2c3ccccc3cc3ccccc23)cc(OC)c1OC | 10 µM | ≥ 125 µM | Ratio IC50 [4]: 0.25
22 | COc1ccc(C(=O)Nc2cc(OC)c(OC)c(OC)c2)cc1 | ≥ 125 µM | ≥ 125 µM | 
23 | COc1cc(NC(=O)c2ccc([N+](=O)[O-])cc2)cc(OC)c1OC | ≥ 125 µM | 52.9 µM | 
24 | COc1cc(NC(=O)Nc2cccc3c2CCC3)cc(OC)c1OC | ≥ 125 µM | 0.47 µM | Ratio IC50 [5]: 12.4
25 | COc1cc(NC(=O)Nc2cccc3ncccc23)cc(OC)c1OC | ≥ 125 µM | 4 µM | Ratio IC50 [5]: 1.5
26 | COc1cc(NC(=O)Nc2cccc3ccccc23)cc(OC)c1OC | 2.45 µM | 5.84 µM | 
27 | COc1ccc(NC(=O)Nc2cc(OC)c(OC)c(OC)c2)cc1 | 12.9 µM | 14.8 µM | 
28 | COc1cc(N(C)C(=O)N(C)c2cccc([N+](=O)[O-])c2)cc(OC)c1OC | ≥ 125 µM | ≥ 125 µM | 
29 | COc1cc(NC(=O)c2ccccc2)cc(OC)c1OC | ≥ 125 µM | ≥ 125 µM | 
30 | COc1cc(N(C)C(=O)N(C)c2cccc3ccccc23)cc(OC)c1OC | ≥ 125 µM | ≥ 125 µM | 
31 | COc1cc(N(C)C(=O)N(C)c2ccc([N+](=O)[O-])cc2)cc(OC)c1OC | ≥ 125 µM | ≥ 125 µM | 
32 | COc1cc(NC(=O)c2cccc3ccccc23)cc(OC)c1OC | 26.8 µM | 48.7 µM | 
33 | COc1cc(NC(=O)Nc2cccc3cc(O)ccc23)cc(OC)c1OC | ≥ 125 µM | ≥ 125 µM | 
34 | COc1cc(NC(=O)Nc2ccc3c(ccn3C)c2)cc(OC)c1OC | ≥ 125 µM | 0.16 µM | Ratio IC50 [5]: 36.5
